# Results from publication PMC10675077, “Antimicrobial Properties of New Polyamines Conjugated with Oxygen-Containing Aromatic Functional Groups” (Molecules, 2023).
# Experiments:
# Escherichia coli JM101 = assay: MIC, microdilution in culture medium, E. coli; assay type: cell-based; settings: Escherichia coli, JM101; 20 h, 37 °C; average of at least three experiments; read-out: MIC, Bacteria, E. coli JM101
# Excerpt: (§1) The microorganisms used for the susceptibility tests were the bacteria Escherichia coli JM101 and Staphylococcus aureus BHI, and the yeast Saccharomyces cerevisiae strains BY4741 (MAT a his3Δ1 leu2Δ0 met15Δ0 ura3Δ0 (EUROSCARF)) carrying YEplac195 (from EUROSCARF) or YEPlac195-PDR5 (provided by Ayse Banu Demir, Izmir University of Economics, Turkey) plasmids.
# (§2) Bacterial strains were usually maintained and grown in an LB medium (0.5% (w/v) yeast extract, 1% (w/v) bactotryptone, and 1% (w/v) NaCl) at 37 °C. For MIC (minimal inhibitory concentration) and MMC (minimal microbicidal concentration) assays, and for the determination of synergies, overnight growth was carried out in 2% (w/v) bactopeptone (BP), and then the cultures were diluted and incubated for several hours in 2% (w/v) BP for ensuring logarithmic growth. Yeast strains were grown in an SC-ura medium (0.17% (w/v) yeast nitrogen base without amino acids and ammonium sulphate, 0.2% (w/v) drop-out without uracil, 0.5% (w/v) (NH4)2SO4, and 2% (w/v) glucose) at 30 °C. Liquid cultures were incubated with shaking (200 rpm). Solid media also contained 2% (w/v) agar.
# (§3) For the analysis of the antimicrobial activity, the strategies and indications of Cushnie et al. were considered. The standardised method of microdilution in a culture medium was followed to determine the MIC [55]. In bacterial strains, serial dilutions of the compounds to be tested and the control antibiotics were prepared in phosphate buffer (20 mM, pH 7.4, 0.5 mL) and were mixed with a suspension of bacterial cells in a logarithmic growth phase (in 1% BP, 0.5 mL). The final OD600 of the whole solutions were 0.004 and 0.008 for E. coli and S. aureus cultures, respectively. After 20 h of incubation at 37 °C with shaking, the MIC was determined as the lowest concentration of each compound in which no visible bacterial growth was observed.
# [1] = test system: Staphylococcus aureus BHI; assay: MIC, microdilution in culture medium, S. aureus; assay type: cell-based; settings: Staphylococcus aureus; 20 h, 37 °C; average of at least three experiments; read-out: MIC, Bacteria, S. aureus BHI
# Excerpt: as §1, §2, §3
# E. coli [2] = assay: Lytic activity, time-kill (OD600), E. coli; assay type: cell-based, Escherichia coli; settings: 5 times the MIC
# Procedure: (§4) To determine if the compounds showing microbicidal activity induce cell lysis, the procedure described by Fleeman et al. was followed, with the modifications indicated below. The E. coli and S. aureus strains were grown as in the experiments described earlier. The cells corresponding to 1.5 units of OD600 were collected and resuspended in 1% BP after washing in the same medium. They were incubated in a final volume of 1 mL with concentrations 5 times higher than the MIC of the analysed compounds, and OD600 was monitored over time. Other antimicrobial compounds were also used in this study as controls. The experiments were performed in triplicate.
# S. aureus = assay: Lytic activity, time-kill (OD600), S. aureus; assay type: cell-based, Staphylococcus aureus; settings: 5 times the MIC
# Procedure: as §4
# [3] = test system: Saccharomyces cerevisiae BY4741/YEplac195-PDR5; assay: microbe, parasite or virus in culture; assay type: cell-based; settings: Saccharomyces cerevisiae, 24 h, read-out: MIC, Yeast, BY4741/ PDR5
# Excerpt: as §1, §2
# (§5) The determination of the MIC for yeast strains was carried out following a similar procedure to that of the polyamines and antifungal reference agents: Serial dilutions of each one in phosphate buffer (20 mM, pH 7.4, 0.5 mL) were prepared and mixed with a suspension of yeast cells (OD600 0.04 in SC-ura 2X (VWR, Atlanta, GA, USA), 0.5 mL). […] Experiments were carried out at least three times in all cases.
# [4] = test system: Saccharomyces cerevisiae BY4741/YEplac195; assay: microbe, parasite or virus in culture; assay type: cell-based; settings: Saccharomyces cerevisiae; 24 h, 30 °C; average of at least three experiments; read-out: MIC, Yeast, BY4741/ YEplac195
# Excerpt: as §1, §2, §5
# [5] = test system: Yeast (S. cerevisiae strains); assay: MIC, yeast (strain not specified); assay type: cell-based, Saccharomyces cerevisiae; settings: Saccharomyces cerevisiae; yeast strain not specified (Tables 5 and 10); read-out: MIC Yeast
# Procedure: as §5
# E. coli JM101 = assay: Minimal bactericidal concentration, E. coli; assay type: cell-based, Escherichia coli; settings: Escherichia coli, JM101; overnight incubation, plating on LB; bacteriostatic if growth at 4 times the MIC
# Procedure: (§6) Once the MIC was known, the samples were prepared as described in the previous section with polyamine concentrations corresponding to the MIC and half, double, and four times its value. After overnight incubation with the microorganisms, 30 μL of a ten-fold dilution of each one was spread in LB (in the case of bacterial strains) or SC-ura (for yeast strains) plates. They were incubated for 20 h at 37 °C (bacteria) or 48 h at 30 °C (yeasts), and the level of growth was determined. […] Experiments were carried out at least three times.
# S. cerevisiae strains = assay: Minimal fungicidal concentration, S. cerevisiae strains; assay type: cell-based, Saccharomyces cerevisiae; settings: fungistatic = growth on SC-ura plates after incubation at four times the MIC
# Procedure: as §6
# BY4741/YEplac195 = assay: Checkerboard titration synergy, BY4741/YEplac195; assay type: cell-based, Saccharomyces cerevisiae; settings: synergistic when FICI ≤0.5
# Procedure: (§7) The combined antimicrobial activity of the test compounds with the antibacterial or antifungal control agents was performed under the same conditions used for the MIC determination and following the procedures described by Carton Herrán, Reis de Sá et al. and Zharkova et al.. For each experiment, 16 samples (4 rows × 4 columns) in a total volume of 0.5 mL were prepared in tubes using an array of combinations between the MIC value and 0 μg/mL of the compound to be tested in each row, and between the MIC value and 0 μg/mL of the reference drug in each column. In this way, a variety of mixtures with different concentrations of them alone or in combination was obtained. Briefly, 0.5 mL of a microorganism culture was added to each one of the samples, and after incubation for 24 h with shaking at the appropriate temperature (37 °C or 30 °C), the tubs were visually inspected, and the OD600 was measured. From this information, the fractional inhibitory concentration index (FICI) was calculated according to the formula FIC index = ([A]/[CMI A]) + ([B]/[CMI B]), where [A] and [B] are respective concentrations of tested polyamine and reference drug in their combination effectively inhibiting the growth of bacteria or yeast, and [MIC A] and [MIC B] are the individual MICs of the tested polyamine and reference drug when they are used alone. An interaction is considered synergistic when the FICI value is ≤0.5 [41, 42].
# (§8) To confirm the data obtained in the checkerboard assay, 30 μL of a ten-fold dilution of the tubes containing concentrations of half of the MIC of each one of the compounds alone (polyamine to be tested and reference drug) and one fourth of the MIC of each one in combination were also spread in LB or SC-ura plates (according to the microorganism considered in each case) and incubated at 37 °C or 30 °C. The visualisation of these plates was performed after 24 or 48 h, respectively. All these experiments were carried out in triplicate.
# BY4741/PDR5 = assay: Checkerboard titration synergy, BY4741/PDR5; assay type: cell-based, Saccharomyces cerevisiae; settings: synergistic when FICI ≤0.5
# Procedure: as §7, §8
# E. coli [6] = assay: Checkerboard titration synergy, E. coli; assay type: cell-based, Escherichia coli; settings: synergistic when FICI ≤0.5
# Procedure: as §7, §8
# [7] = Cytotoxicity, flow cytometry viability assay with propidium iodide; assay type: cell-based, human; settings: human, Jurkat cells (human lymphocytic leukaemia, ATCC TIB-152), 24 h treatment, average of three experiments, read-out: IC50, cytotoxicity on the human Jurkat cell line
# Procedure: The cytotoxicity of the compounds was assessed via flow cytometry with a viability assay using propidium iodide (PI), a DNA-binding fluorescent probe not permeant to live cells, which is commonly used to detect dead cells in a population. The human lymphocytic leukaemia Jurkat cell line (ATCC TIB-152) was obtained from the American Type Cell Culture (Sigma-Aldrich) and grown in suspension in an RPMI 1640 medium (Thermo Fisher Scientific, Waltham, MA, USA) supplemented with L-glutamine, antibiotics, and 10% heat-inactivated foetal calf serum (FCS, Thermo Fisher Scientific, Waltham, MA, USA). For the viability assay, cells were seeded in plastic 96-well plates at […] in an RPMI 1640 medium supplemented with 5% FCS. The cells were treated for 24 h with a range of concentrations of the test compounds or with the same volume of phosphate buffer (PBS) in control wells. After incubation, cell suspensions were washed, resuspended in 400 μL fresh medium, and incubated for 5 min at room temperature in the dark with 3.75 μM PI (Sigma-Aldrich). Cell viability was determined via flow cytometry using a Gallios flow cytometer (Beckman Coulter). PI fluorescence was excited with an argon-ion laser at 488 nm and collected through a 620/630 nm band-pass emission. Cellular events were discriminated from debris using forward scatter (FS) and side scatter (SS) signals. Cell aggregates were excluded from analysis based on FS-integral and FS-peak. The gates applied for population discrimination were set manually based on control samples. For each sample, 10,000 events were collected. For further analysis, the cytometric data were exported to Kaluza 2.1 software (Beckman Coulter, Brea, CA, USA). Dead cells were identified and quantified as PI-positive events. The cytotoxic potency of test compounds was quantified using their IC50 values, i.e., the compound concentration at which cell viability is inhibited by 50%, as calculated via curve fitting and determined with the correlation coefficient (R2) using GraphPad Prism 9.0 software. Experiments were carried out in triplicate.
SMILES,MIC (Escherichia coli JM101),MIC [1],Lytic activity (OD600 over time) (E. coli [2]),Lytic activity (OD600 over time) (S. aureus),MIC [3],MIC [4],MIC [5],MBC (E. coli JM101),"Minimal fungicidal concentration (MFC), S. cerevisiae Strains (S. cerevisiae strains)",Synergy with Amphotericin B (BY4741/YEplac195),Synergy with Cycloheximide (BY4741/YEplac195),Synergy with Fluconazole (BY4741/YEplac195),Synergy with Amphotericin B (BY4741/PDR5),Synergy with Cycloheximide (BY4741/PDR5),Synergy with Ciprofloxacin (E. coli [6]),IC50 at 24 h [7]
"CC1(C)S[C@@H]2[C@H](NC(=O)[C@H](N)c3ccccc3)C(=O)N2[C@H]1C(=O)O [Ampicillin, reference compound]",2 µg/mL,0.14 µg/mL,OD600 significantly decreased,cellular lysis,,,,,,,,,,,,
NCCN1CCNCc2cccc(n2)CNCC1 [Compound 5b],10 µg/mL,200 µg/mL,,,110 µg/mL,110 µg/mL,110 µg/mL,20 µg/mL,Fungistatic,-,positive results and +,synergic and +,-,positive results and +,synergy,1250 µg/mL
"C[C@H]1c2cccc(O)c2C(=O)C2=C(O)[C@]3(O)C(=O)C(C(N)=O)=C(O)[C@@H](N(C)C)[C@@H]3[C@@H](O)[C@@H]21 [Doxycycline, reference compound]",1 µg/mL,0.25 µg/mL,,not the case,,,,,,,,,,,,
